What was measured:
No. 04 Coronavirus [1] = assay: Inhibition on No. 04 Coronavirus in HELA cells (CPE method); assay type: cell-based
Description: HELA cells were seeded on 96-well cultivation plates at the concentration of 400,000/ml and grown to monolayer at 37° C. in 5% CO2 incubator for 24 hours. After removal of cultivation liquid, coronavirus liquid were added to HELA cells and absorbed at 37° C. in 5% CO2 incubator for 2 hours. […] At the same time reference cells and reference virous were cultivated at 37° C. in 5% CO2 incubator for 5 to 7 days. Inverted microscope was used everyday to observe the cytopathic effect (CPE) of virus. The determination were ended according to the appearance of “+++-++++”. […] The determination was repeated three times.

[2] = system: drug-resistant suppurative streptococcus; assay: Amygdalitis model of mice, upper respiratory tract infection; assay type: in vivo
Text: C. The preparation of the amygdalitis model of mice infected by the drug-resistant suppurative streptococcus with the upper respiratory tract:
(§1) 10 healthy Kunming mice (18˜22 g), male and female, infected by the drug-resistant suppurative streptococcus with the upper respiratory tract in way of spraying which induce the amygdalitis of mice, then promptly suck aerosol (powder or liquid) according to 30000 u/ml/20 g and give medicines three times a day. Observe for one week after infecting and record the efficient rate of mice. […]

HELA cell = assay: Toxicity to HELA cell (CPE, Reed-Muench)
Description: 1. Determination of the Toxicity of Recombinant Human Lysozyme to HELA Cell:
HELA cells were seeded on 96-well culture plates at the concentration of 400,000/mi and grown at 37° C. in a 5% CO2 incubator for 2 hours. 100 μl recombinant human lysozyme which were double-diluted from 6000 ug/ml to 11.7 ug/ml and positive reference medicine which were double-diluted from 6000 ug/ml to 11.7 ug/ml were respectively added to 3 wells per concentration. At the same time the reference cells were cultivated at 37° C. in a 5% CO2 incubator for 6 days. Inverted microscope was used everyday to observe the cytopathic effect (CPE). The cytopathic effect under 25% was recorded as “+”, the cytopathic effect under 26%˜50% was recorded as “++”, the cytopathic effect under 51%˜75% was recorded as “+++” and the cytopathic effect under 76%˜100% was recorded as “++++”. Drug median toxic dose (TD50) and minimum toxic dose (TD0) were calculated by using Reed-Muench method.

[3] = system: bronchus pneumonia of mice by sucking the hydrochloric acid; assay: Bronchus pneumonia (bronchus lung injury) of mice by sucking atomized hydrochloric acid; assay type: in vivo, Kunming mice
Description: D. The effect of human lysozyme to bronchus pneumonia of mice by sucking the hydrochloric acid:
50 mice were equally divided to 5 groups at random, selecting randomly 4 groups among them to make the model of the mice atomized hydrochloric acid.
Each batch of 10 mice was put in Glass desiccator which equipped the self-made atomizer contained 1 N HCI solution. The principle of electronic supra-frequency shaker was used to atomizate hydrochloric acid, then it was inspired for 1 hour by mice to make model of inspiring bronchus lung injury. Its mechanism is that inspiring acidoid can cause adhesion of leucocyte and increasing expression of ICAM-1 and permeability of endotheliocyte and cellula epithelialis to protein, thereby to cause pneumochysis. Otherwise inspiring acidoid can cause the release of phlegmonosis cytokine. Assembling in lung and reciprocal activation of these cytokine and neutrophilic leukocyte can induce cell adhesion and tissue damage.
40 mice models were gathered and then randomly divided to 4 groups. 3 groups were treated with drug, 1 group were treated as model group.
The concentration of recombinant human lysozyme medicine was set at 15000 u/ml in clinical atomization therapy. The dose was 15000 u per time once daily, I.e 0.5 mg per time. The dose was 1.3×10^−3mg a mice (calculated by weight of 20 g). Human ventilatory capacity (9000 ml/min) corresponded with 375 times of mice ventilatory capacity (24 ml/min). Human single dose (0.5 mg/70 kg) corresponded with 384 times of mice dose (1.3×10^−3 mg/20 g). Two folds between ventilatory capacity and single dose were closed, so clinical human dose was used for atomization therapy of mice. Availability of clinical inspiring lysozyme atomized was higher than breathing amount of mice by itself in atomizer. To ensure the breathing amount of lysozyme, the breathing time were extended for 1 hour. Based on 0.5 mg/ml as low dose, the concentration of 1.0 mg/ml and 2.0 mg/ml were set respectively as middle and high dose. The mice were put into the glass desiccator and then treated with human lysozyme atomized in the compression sprayer (PARL.BOY) once daily, and continued 5-10 days (shown in FIG. 2).
As atomization was treated to the 5th and 10th day, half animals (5) of every group were dissected, then the lung tissues were weighed and the lung coefficients were calculated according to the weight. Pathological changes of appearance and the lung tissue were observed respectively by naked eye and pathological section.

[4] = system: drug-resistant suppurative streptococcus; assay: Acute or chronic suppurative faucitis model of mice, upper respiratory tract infection; assay type: in vivo
Text: B. Preparation of the acute or chronic suppurative faucitis model of little mice infected by the drug-resistant suppurative streptococcus with the upper respiratory tract:
as §1, with “female, were” for “female,”, “induced” for “induce”, “acute or chronic suppurative faucitis” for “amygdalitis”, “mice, and” for “mice,”, “treated with” for “suck”, “at the dose of” for “according to”

No. 04 Coronavirus [5] = assay: organism not typed; assay type: cell-based
Description: HELA cells were seeded on 96-well cultivation plates at the concentration of 400,000/ml and grown to monolayer at 37° C. in 5% CO2 incubator for 24 hours. […] Then 100 TCID50coronavirus liquid were added to HELA cells. At the same time reference cell and reference virous were cultivated at 37° C. in 5% CO2 incubator for 5 to 7 days. At the same time normal cell reference and virous reference were cultivated at 37° C. in 5% CO2 incubator for 5 to 7 days. Inverted microscope was used everyday to observe the cytopathic effect (CPE) of virus. The determination were ended according to the appearance of “+++-++++”. […] The determination was repeated three times.

[6] = inhibition: drug added after virus absorbed 2 hours, mean of thrice test
[7] = 10 mice, aerosol 30000 u/ml/20 g three times a day, one week
[8] = atomized solution and inhalation
[9] = high dosage 2.0 mg/ml, atomization treated for 5 days
[10] = high dosage 2.0 mg/ml, atomization treated for 10 days
[11] = low dosage 0.5 mg/ml, atomization treated for 5 days
[12] = low dosage 0.5 mg/ml, atomization treated for 10 days
[13] = median dosage 1.0 mg/ml, atomization treated for 5 days
[14] = median dosage 1.0 mg/ml, atomization treated for 10 days
[15] = prevention: drug absorbed 2.5 hours before 100 TCID50 virus, mean of thrice test

## Human lysozyme: gene recombinant Human Lysozyme (HLZ), active unit 30000 u/mg, batch number 020110; given atomized / as aerosol
No. 04 Coronavirus [1]; inhibition: drug added after virus
  therapeutic index (TI): 16
No. 04 Coronavirus [1]; [6]
  median inhibitory concentration (IC50): 23.4 ± 0 µg/mL
  minimum inhibitory concentration (MIC): 46.8 ± 0 µg/mL
[2]; [7]
  Efficient %: 100%
  Healing: 8
  Invalid: 0
  Valid: 2
[2]; [8]
  curative effect to the amygdalitis of mice: obvious curative effect
HELA cell
  median toxic dose (TD50): 1500 ± 0 µg/mL
  minimum toxic dose (TD0): 750 ± 0 µg/mL
[3]; atomization
  effect on mice model of bronchus lung injury caused by inspiring hydrochloric acid: validated effective
[3]; [9]
  Lung coefficient (g/g) × 10^−3: 9.1 ± 1.00 (g/g) × 10^−3
  Weight: 29.4 ± 3.3 g
[3]; [10]
  Lung coefficient (g/g) × 10^−3: 8.32 ± 1.84 (g/g) × 10^−3
  Weight: 31.2 ± 2.0 g
[3]; high dosage group, 5 days
  pathohistology observation of bronchiole and bronchia in lung: little infiltration of a few monocytes and lymphocytes in bronchus between lobules, and a few phlegmasia cells and secretion in part bronchioles
  pathological section: animals changed pathologically: 2/5
  pathological section: animals normal: 3/5
[3]; [11]
  Lung coefficient (g/g) × 10^−3: 7.30 ± 0.43 (g/g) × 10^−3
  Weight: 29.6 ± 1.6 g
[3]; [12]
  Lung coefficient (g/g) × 10^−3: 7.10 ± 0.61 (g/g) × 10^−3
  Weight: 30.7 ± 3.0 g
[3]; low dosage group, 5 days
  pathohistology observation of bronchiole and bronchia in lung: two spalling of epithelium mucosae in bronchioles and bronchia of one lung tissue, a little erythrocytes in bronchiole lumina of another lung tissue, and normality in the others
  pathological section: animals kept normally: 4/5
[3]; [13]
  Lung coefficient (g/g) × 10^−3: 7.8 ± 0.65 (g/g) × 10^−3
  Weight: 29.2 ± 2.4 g
[3]; [14]
  Lung coefficient (g/g) × 10^−3: 8.30 ± 1.40 (g/g) × 10^−3
  Weight: 30.6 ± 2.2 g
[3]; median dosage group, 5 days
  pathohistology observation of bronchiole and bronchia in lung: little infiltration of a few monocytes and lymphocytes around part bronchioles, intactness of upper strata wall of most bronchioles tunica mucosa, spalling of a few epithelium mucosae
  pathological section: animals kept normally: 5/5
[4]; [7]
  Efficient %: 100%
  Healing: 8
  Invalid: 0
  Valid: 2
[4]; [8]
  curative effect to acute or chronic suppurative faucitis of mice: obvious curative effect
No. 04 Coronavirus [5]; [15]
  median inhibitory concentration (IC50): 5.9 ± 0 µg/mL
  minimum inhibitory concentration (MIC): 11.7 ± 0 µg/mL
No. 04 Coronavirus [5]; prevention: drug before virus
  therapeutic index (TI): 64

From US20080031868A1, “HUMAN LYSOZYME MEDICINE, ITS MANUFACTURING METHOD AND APPLICATION THEREOF” (priority 2005, published 2008)
